Values after ≈ are worked out from the molar mass of the structure shown. Where only a bound is given, the exact number is not on record here.

Sequence of Voltage-gated inwardly rectifying potassium channel KCNH2 (Q12809 whole entry): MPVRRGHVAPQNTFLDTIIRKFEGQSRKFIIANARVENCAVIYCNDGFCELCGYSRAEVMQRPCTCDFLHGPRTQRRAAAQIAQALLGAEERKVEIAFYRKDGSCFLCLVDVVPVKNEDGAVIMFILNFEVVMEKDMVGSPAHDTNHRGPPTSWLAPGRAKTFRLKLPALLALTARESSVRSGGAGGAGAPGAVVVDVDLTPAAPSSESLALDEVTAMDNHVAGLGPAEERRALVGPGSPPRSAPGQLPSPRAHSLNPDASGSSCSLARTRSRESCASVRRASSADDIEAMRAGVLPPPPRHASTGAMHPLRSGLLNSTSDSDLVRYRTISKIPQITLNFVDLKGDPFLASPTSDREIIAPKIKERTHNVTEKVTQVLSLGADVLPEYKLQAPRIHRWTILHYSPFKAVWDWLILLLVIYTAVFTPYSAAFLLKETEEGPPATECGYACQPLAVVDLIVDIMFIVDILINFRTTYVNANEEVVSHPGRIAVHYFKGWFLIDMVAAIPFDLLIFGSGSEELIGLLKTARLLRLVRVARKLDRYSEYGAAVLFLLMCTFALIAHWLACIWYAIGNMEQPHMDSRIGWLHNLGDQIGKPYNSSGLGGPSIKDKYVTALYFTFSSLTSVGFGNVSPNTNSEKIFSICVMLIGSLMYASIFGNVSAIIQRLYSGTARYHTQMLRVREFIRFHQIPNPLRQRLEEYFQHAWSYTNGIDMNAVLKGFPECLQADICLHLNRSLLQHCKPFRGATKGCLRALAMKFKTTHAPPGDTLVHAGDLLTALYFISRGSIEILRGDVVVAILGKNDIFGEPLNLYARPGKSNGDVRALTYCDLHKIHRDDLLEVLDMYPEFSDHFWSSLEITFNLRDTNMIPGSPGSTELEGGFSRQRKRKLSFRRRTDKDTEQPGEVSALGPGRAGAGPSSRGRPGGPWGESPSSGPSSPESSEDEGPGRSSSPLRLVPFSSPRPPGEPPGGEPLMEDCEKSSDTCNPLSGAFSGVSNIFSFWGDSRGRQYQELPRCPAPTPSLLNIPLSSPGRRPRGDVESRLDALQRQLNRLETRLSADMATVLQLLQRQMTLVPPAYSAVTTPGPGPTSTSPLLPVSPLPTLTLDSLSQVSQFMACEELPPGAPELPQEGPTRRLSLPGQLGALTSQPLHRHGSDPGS

Test system in the first data set: not listed separately
Kind of data set: Oral bioavailability in rat. In kind it is ADME, organism-based. To be noted: in vivo.
A word on the bioavailability: it is dose-corrected exposure relative to a reference, in per cent. In turn, `COCC[C@H](Oc1ncnc2c1cnn2-c1ccccc1Cl)C(=O)Nc1ccc(C)cn1` returned a bioavailability of 53%.

Test system in another data set: not listed separately
Kind of data set: Octanol-water partition coefficient, log D of the compound by HPLC analysis.
Details: not given
Broadly, the logD is the decadic logarithm of the distribution of all forms, ionised or not, between an organic phase and buffer at a given pH. Read a high logD as higher lipophilicity. As to `COCC[C@H](Oc1ncnc2c1cnn2-c1ccccc1OC)C(=O)Nc1ccc(C)cn1`, the log distribution coefficient (logD) is 3.5.

The molecule `Cc1ccc(NC(=O)CSc2ncnc3c2cnn3-c2ccccc2Cl)nc1` showed a logD of 4.2.

The molecule `CCCCC(Sc1ncnc2c1cnn2-c1ccccc1Cl)C(=O)Nc1nc(C)cs1` (racemic) returned a logD of 6.4.

In turn, `COCCC(Sc1ncnc2c1cnn2-c1ccccc1Cl)C(=O)Nc1nc(C)cs1` (racemic) gave a pH-dependent lipophilicity (logD) of 4.8.

`COCCC(Oc1ncnc2c1cnn2-c1ccccc1OC)C(=O)Nc1ccc(C)cn1` (racemic) came in with a log distribution coefficient (logD) of 3.5.

As to `Cc1csc(NC(=O)C(Sc2ncnc3c2cnn3-c2ccccc2Cl)c2ccccc2)n1` (racemic), the logD was determined as 5.6.

On to `COCC[C@H](Oc1ncnc2c1cnn2-c1ccccc1Cl)C(=O)Nc1ccc(C)cn1`, for which the logD is 3.9.

Take `COCCOCCC(Sc1ncnc2c1cnn2-c1ccccc1Cl)C(=O)Nc1nc(C)cs1` (racemic): the pH-dependent lipophilicity (logD) came to 4.7.

`COCCC(Oc1ncnc2c1cnn2-c1ccccc1Cl)C(=O)Nc1ccc(C)cn1` (racemic): the logD was 4.1.

On to `COCCC(Oc1ncnc2c1cnn2-c1ccccc1C)C(=O)Nc1ccc(C)cn1` (racemic), for which the logD worked out at 4.2.

Turning to `Cc1csc(NC(=O)CSc2ncnc3c2cnn3-c2ccccc2Cl)n1`, the logD is 3.8.

`CCCCC(Oc1ncnc2c1cnn2-c1ccccc1Cl)C(=O)Nc1nc(C)cs1` (racemic) had a pH-dependent lipophilicity (logD) of 5.7.

For the molecule `O=C(CSc1ncnc2c1cnn2-c1ccccc1Cl)Nc1ccccc1`, the logD stood at 4.3.

In turn, `Cc1csc(NC(=O)COc2ncnc3c2cnn3-c2ccccc2Cl)n1` yielded a log distribution coefficient (logD) of 3.2.

`O=C(CSc1ncnc2c1cnn2-c1ccccc1Cl)Nc1ncccn1`: the log distribution coefficient (logD) was 2.2.

As for `Cn1ccc(NC(=O)CSc2ncnc3c2cnn3-c2ccccc2Cl)n1`, the logD came out at 2.5.

The subject of a further data set is Liver microsomes. The experiment in a line: Drug metabolism in human liver microsomes assessed as glutathione adduct formation relative to clozapine. In kind it is ADME, Microsome.
Details: not given
In general terms: Liver microsomes are a subcellular fraction often used to study metabolism.
Consider `Cc1ccc(NC(=O)CSc2ncnc3c2cnn3-c2ccccc2Cl)nc1`, for which the “fold change (FC)” value is given as 5.

Take `CCCCC(Sc1ncnc2c1cnn2-c1ccccc1Cl)C(=O)Nc1nc(C)cs1` (racemic): the “fold change (FC)” value is given as 5.

Consider `COCCC(Sc1ncnc2c1cnn2-c1ccccc1Cl)C(=O)Nc1nc(C)cs1` (racemic), for which the “fold change (FC)” value is reported as 5.

As to `Cc1csc(NC(=O)C(Sc2ncnc3c2cnn3-c2ccccc2Cl)c2ccccc2)n1` (racemic), the “fold change (FC)” value is 5.

Take `COCCOCCC(Sc1ncnc2c1cnn2-c1ccccc1Cl)C(=O)Nc1nc(C)cs1` (racemic): the “fold change (FC)” value is 5.

As to `Cc1csc(NC(=O)CSc2ncnc3c2cnn3-c2ccccc2Cl)n1`, the “fold change (FC)” value was 5.

`O=C(CSc1ncnc2c1cnn2-c1ccccc1Cl)Nc1ccccc1`: the “fold change (FC)” value amounted to 5.

`O=C(CSc1ncnc2c1cnn2-c1ccccc1Cl)Nc1ncccn1`: the “fold change (FC)” value worked out at 5.

Regarding `Cn1ccc(NC(=O)CSc2ncnc3c2cnn3-c2ccccc2Cl)n1`, the “fold change (FC)” value is recorded as 5.

Test system in a further data set: not listed separately
Kind of data set: Solubility of the compound.
Details: not given
The solubility is how much of the substance goes into solution per volume. A low value points to little dissolved substance. On to `COCC[C@H](Oc1ncnc2c1cnn2-c1ccccc1OC)C(=O)Nc1ccc(C)cn1`, for which the concentration in solution (solubility) was 86 µM (≈ 38.6 µg/mL).

Consider `COCC[C@H](Oc1ncnc2c1cnn2-c1ccccc1Cl)C(=O)Nc1ccc(C)cn1`, for which the solubility turned out to be 95 µM (≈ 43 µg/mL).

Test system in the next data set: not listed separately
The experiment in a line: Clearance in rat. In kind it is ADME, organism-based. To be noted: in vivo.
Usually clearance stands for the rate of elimination divided by the concentration. Read a high clearance as a high capacity for elimination. In turn, `COCC[C@H](Oc1ncnc2c1cnn2-c1ccccc1Cl)C(=O)Nc1ccc(C)cn1` gave a clearance of 2.04 L/h/kg.

Test system in a further data set: not listed separately
The experiment in a line: Volume of distribution at steady state in rat. It is filed as ADME, organism-based. The note with it: in vivo, read-out: Vdss.
Consider `COCC[C@H](Oc1ncnc2c1cnn2-c1ccccc1Cl)C(=O)Nc1ccc(C)cn1`, for which the Vd worked out at 3.2 L/kg.

The next data set concerns the target Voltage-gated inwardly rectifying potassium channel KCNH2 (Homo sapiens, UniProt Q12809).
Details: not given
For orientation: IC50 means the point on the concentration scale where inhibition reaches its midpoint. Read a low IC50 as higher potency. `COCC[C@H](Oc1ncnc2c1cnn2-c1ccccc1OC)C(=O)Nc1ccc(C)cn1` returned a half-maximal inhibitory concentration (IC50) of more than 33 µM.

Take `COCC[C@H](Oc1ncnc2c1cnn2-c1ccccc1Cl)C(=O)Nc1ccc(C)cn1`: 22 µM corresponded to half-maximal inhibition (IC50).

A further data set has as its system Hepatocyte. The experiment in a line: Intrinsic clearance in rat hepatocytes assessed per 10^6 cells. It is filed as ADME, cell-based.
Details: not given
`COCC[C@H](Oc1ncnc2c1cnn2-c1ccccc1C(F)(F)F)C(=O)Nc1ccc(C)cn1` gave a CLint of 27 µL/min/1e6 cells.

For the molecule `COCC[C@H](Oc1ncnc2c1cnn2-c1ccccc1OC)C(=O)Nc1ccc(C)cn1`, the CLint was found to be 132 µL/min/1e6 cells.

As for `COCC[C@H](Oc1ncnc2c1cnn2-c1ccccc1Cl)C(=O)Nc1ccc(C)cn1`, the CLint is 35 µL/min/1e6 cells.

In the next data set the target is T1, Hexokinase-4 (Homo sapiens, UniProt P35557).
T1 sequence (P35557 whole entry): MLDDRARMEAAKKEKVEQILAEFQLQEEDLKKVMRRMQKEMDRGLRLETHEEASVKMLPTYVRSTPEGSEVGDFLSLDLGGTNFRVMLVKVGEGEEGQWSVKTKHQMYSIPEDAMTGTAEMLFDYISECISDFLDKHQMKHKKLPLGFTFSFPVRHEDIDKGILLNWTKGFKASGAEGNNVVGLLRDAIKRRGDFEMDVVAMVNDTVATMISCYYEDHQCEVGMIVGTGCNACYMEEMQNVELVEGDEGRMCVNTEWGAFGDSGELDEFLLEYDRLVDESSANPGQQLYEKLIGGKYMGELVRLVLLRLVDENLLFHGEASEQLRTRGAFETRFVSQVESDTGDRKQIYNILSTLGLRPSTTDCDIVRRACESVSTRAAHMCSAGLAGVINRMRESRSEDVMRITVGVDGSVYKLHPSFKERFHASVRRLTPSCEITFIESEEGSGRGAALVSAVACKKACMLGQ
The experiment in a line: Activation of human glucokinase.
Details: not given
Usually EC50 stands for the midpoint of the concentration-response curve. A high value points to a less potent agent. `COCC[C@H](Oc1ncnc2c1cnn2-c1ccccc1OC)C(=O)Nc1ccc(C)cn1` showed an EC50 of 0.126 µM.

In the case of `Cc1ccc(NC(=O)CSc2ncnc3c2cnn3-c2ccccc2Cl)nc1`, the 50% effective concentration (EC50) is 0.501 µM.

`CCCCC(Sc1ncnc2c1cnn2-c1ccccc1Cl)C(=O)Nc1nc(C)cs1` (racemic) gave a concentration giving a half-maximal response (EC50) of 0.631 µM.

Take `COCCC(Sc1ncnc2c1cnn2-c1ccccc1Cl)C(=O)Nc1nc(C)cs1` (racemic): the EC50 is 0.794 µM.

With `COCCC(Oc1ncnc2c1cnn2-c1ccccc1OC)C(=O)Nc1ccc(C)cn1` (racemic), it took 0.2 µM to reach a half-maximal effect (EC50).

Consider `Cc1csc(NC(=O)C(Sc2ncnc3c2cnn3-c2ccccc2Cl)c2ccccc2)n1` (racemic), for which the EC50 was more than 100 µM.

In the case of `COCC[C@H](Oc1ncnc2c1cnn2-c1ccccc1Cl)C(=O)Nc1ccc(C)cn1`, the EC50 is 0.0501 µM. This lies in the double-digit nanomolar range.

`COCCOCCC(Sc1ncnc2c1cnn2-c1ccccc1Cl)C(=O)Nc1nc(C)cs1` (racemic) had a half-maximal effective concentration (EC50) of 3.16 µM.

On to `Cc1csc(NC(=O)CSc2ncnc3c2cnn3-c2ccccc2)n1`, for which the concentration for a half-maximal effect (EC50) is more than 100 µM.

`COCCC(Oc1ncnc2c1cnn2-c1ccccc1Cl)C(=O)Nc1ccc(C)cn1` (racemic) showed a concentration giving a half-maximal response (EC50) of 0.1 µM.

As for `COCCC(Oc1ncnc2c1cnn2-c1ccccc1C)C(=O)Nc1ccc(C)cn1` (racemic), a half-maximal effect (EC50) was put at 0.316 µM.

The molecule `Cc1csc(NC(=O)CSc2ncnc3c2cnn3-c2ccccc2Cl)n1` gave an EC50 of 2.51 µM.

In turn, `CCCCC(Oc1ncnc2c1cnn2-c1ccccc1Cl)C(=O)Nc1nc(C)cs1` (racemic) gave an EC50 of 0.126 µM.

Molecule `O=C(CSc1ncnc2c1cnn2-c1ccccc1Cl)Nc1ccccc1` showed an EC50 of more than 100 µM.

The molecule `Cc1csc(NC(=O)COc2ncnc3c2cnn3-c2ccccc2Cl)n1` showed a concentration for a half-maximal effect (EC50) of 1.58 µM.

In the case of `O=C(CSc1ncnc2c1cnn2-c1ccccc1Cl)Nc1ncccn1`, the EC50 was more than 100 µM.

Molecule `Cn1ccc(NC(=O)CSc2ncnc3c2cnn3-c2ccccc2Cl)n1` showed a half-maximal effective concentration (EC50) of 15.8 µM.
